The target of one experiment is T1, O-GlcNAcase (UniProt Q8VIJ5).
T1 sequence (Q8VIJ5 1-916): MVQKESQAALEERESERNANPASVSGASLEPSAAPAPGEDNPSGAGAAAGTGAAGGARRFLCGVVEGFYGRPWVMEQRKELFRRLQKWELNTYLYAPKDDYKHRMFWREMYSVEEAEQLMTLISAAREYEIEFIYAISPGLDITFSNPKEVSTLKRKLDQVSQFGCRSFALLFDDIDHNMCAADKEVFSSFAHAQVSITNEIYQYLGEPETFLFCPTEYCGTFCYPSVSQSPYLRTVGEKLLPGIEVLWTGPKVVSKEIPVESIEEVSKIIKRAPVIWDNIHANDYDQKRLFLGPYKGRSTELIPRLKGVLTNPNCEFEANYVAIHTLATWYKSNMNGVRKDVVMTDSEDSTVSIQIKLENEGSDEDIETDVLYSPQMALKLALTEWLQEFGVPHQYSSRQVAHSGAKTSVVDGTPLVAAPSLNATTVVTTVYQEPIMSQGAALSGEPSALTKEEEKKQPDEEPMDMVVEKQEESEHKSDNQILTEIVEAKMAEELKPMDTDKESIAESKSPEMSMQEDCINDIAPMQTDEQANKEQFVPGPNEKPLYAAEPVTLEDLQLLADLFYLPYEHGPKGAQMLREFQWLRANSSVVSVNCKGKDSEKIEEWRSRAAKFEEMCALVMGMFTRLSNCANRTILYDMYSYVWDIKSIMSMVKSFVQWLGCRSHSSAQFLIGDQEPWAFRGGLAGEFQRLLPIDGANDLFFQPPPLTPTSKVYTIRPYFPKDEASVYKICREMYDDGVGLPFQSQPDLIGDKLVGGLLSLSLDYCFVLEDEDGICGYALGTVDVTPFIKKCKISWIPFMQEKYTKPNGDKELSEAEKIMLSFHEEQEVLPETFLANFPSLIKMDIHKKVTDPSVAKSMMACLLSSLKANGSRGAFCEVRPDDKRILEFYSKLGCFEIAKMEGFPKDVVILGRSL
Type of experiment: cell-based. The text has this:
Assay for the Determination of Cellular Activity for Compounds that Inhibit O-GlcNAcase Activity
Inhibition of O-GlcNAcase, which removes O-GlcNAc from cellular proteins, results in an increase in the level of O-GlcNAcylated proteins in cells. An increase in the O-GlcNAcylation of cellular proteins can be measured by an antibody, such as CTD110.6, that binds O-GlcNAcylated proteins. The amount of O-GlcNAcylated protein can be determined by the enzyme linked immunoabsorbant assay (ELISA) technique.
Cell lines, such as rat B35, rat PC-12 and human SH-SY5Y cells, expressing endogenous levels of O-GlcNAcase, could be utilized. Cells were plated in 96-well plates at a density of approximately 10,000 cells/well. Compounds to be tested were dissolved in DMSO as 10 mM stock solution, and then diluted first with DMSO and then culture media using the Bravo workstation. Cells were treated with diluted compounds for approximately 16 hours. […] To prepare a cell lysate, the media from compound treated cells were removed, and the cells were washed once with Dulbecco's phosphate buffered saline (DPBS) and then lysed for 30 minutes in 100 μl/well of ice cold RIPA buffer containing a protease inhibitor cocktail.
The ELISA portion of the assay was performed in EIA/RIA plates that were coated overnight at 4 C with 80 μl/well of cell lysate. The following day the wells were washed 6 times with 200 μl of wash buffer (0.05% Tween20 in DPBS). The wells were blocked with 200 μl blocking buffer (1% BSA, 0.05% Tween20 in DPBS) for 1 h at room temperature. Each well was then washed 6 times with 200 μl of wash buffer. The anti-O-GlcNAc antibody CTD110.6 (Covance, Princeton, N.J.) was added at 100 μl/well at a concentration of 10 μg/ml. The plates were incubated for 1 h at room temperature. The wells were then washed 6 times with 200 μl/well of wash buffer. To detect the amount of CTD110.6 bound to the cell lysate, alkaline phosphatase conjugated goat anti-mouse IgM (diluted 1:500 in blocking buffer) was added at 100 μl/well and incubated for 45 min at room temperature. Each well was then washed 6 times with 200 μl/well of wash buffer. PNPP tablets dissolved in diethanolamine substrate buffer and 100 μl/well were added as detection reagent.
The amount of O-GlcNAcylated protein, as detected by the ELISA assay, was plotted for each concentration of test compound using standard curve fitting algorithms for sigmoidal dose response curves. The values for a four parameter logistic curve fit of the data were determined, with the inflection point of the curve being the potency value for the test compound.

Experiment [1] concerns the target T2, His-Tagged hOGA (human O-GlcNAcase) (Homo sapiens, UniProt O60502).
T2 sequence (O60502 1-916): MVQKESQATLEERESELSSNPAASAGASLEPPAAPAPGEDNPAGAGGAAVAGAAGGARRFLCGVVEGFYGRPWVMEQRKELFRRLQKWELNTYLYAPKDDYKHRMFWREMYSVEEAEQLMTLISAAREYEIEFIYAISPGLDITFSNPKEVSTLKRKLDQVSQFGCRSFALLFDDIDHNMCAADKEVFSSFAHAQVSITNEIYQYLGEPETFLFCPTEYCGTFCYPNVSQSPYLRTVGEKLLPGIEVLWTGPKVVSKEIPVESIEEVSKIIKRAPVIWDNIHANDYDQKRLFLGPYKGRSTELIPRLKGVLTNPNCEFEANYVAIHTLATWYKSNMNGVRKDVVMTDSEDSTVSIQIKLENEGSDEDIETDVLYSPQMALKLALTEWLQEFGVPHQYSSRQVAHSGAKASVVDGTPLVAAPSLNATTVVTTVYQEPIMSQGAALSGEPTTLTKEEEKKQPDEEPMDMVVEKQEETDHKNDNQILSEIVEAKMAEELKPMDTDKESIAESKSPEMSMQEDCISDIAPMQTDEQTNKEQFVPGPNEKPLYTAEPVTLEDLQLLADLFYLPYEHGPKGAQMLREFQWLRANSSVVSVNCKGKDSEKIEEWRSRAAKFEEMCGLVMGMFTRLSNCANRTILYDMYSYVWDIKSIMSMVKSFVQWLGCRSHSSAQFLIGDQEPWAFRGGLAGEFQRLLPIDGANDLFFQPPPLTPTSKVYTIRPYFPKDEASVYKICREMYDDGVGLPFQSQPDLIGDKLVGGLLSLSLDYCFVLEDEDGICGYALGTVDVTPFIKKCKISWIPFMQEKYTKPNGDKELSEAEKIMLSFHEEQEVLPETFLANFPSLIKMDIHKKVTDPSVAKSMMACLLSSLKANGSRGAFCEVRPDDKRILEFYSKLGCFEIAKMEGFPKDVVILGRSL
Kind of experiment: biochemical. As for the experimental part:
Human O-GlcNAcase Enzyme Inhibition Assay
The following reaction components were added to a final volume of 10 μL in McIlvaine's Buffer (pH 6.5):
20 nM His-Tagged hOGA and 10 μM Fluoroscein mono-beta-D-(2-deoxy-2-N-acetyl) glucopyranoside (FL-GlcNAc; Marker Gene Technologies Inc, Part #M1485). […] The amount of fluorescence measured was plotted against the concentration of inhibitor to produce a sigmoidal dose response curve, from which an IC50 was calculated.

Setting [2] is: cells expressing endogenous O-GlcNAcase (such as rat B35, rat PC-12, human SH-SY5Y), approximately 16 hours treatment; read-out: OGA cellular inhibition (EC50).
The mark [3] stands for this setting: read-out: OGA enzyme inhibition (IC50).

pEC50, pIC50: −log10 of the molar value. Read-outs that look alike come from different tables or passages of the source. A value given as a limit tells only on which side of the number the result lay.

For `CCNC1=N[C@@H]2[C@@H](O)[C@H](O)[C@@H](Cn3cc(-c4ccccc4)nn3)O[C@@H]2S1` [compound no. 2, (3aR,5R,6S,7R,7aR)-2-(ethylamino)-5-[(4-phenyl-1H-1,2,3-triazol-1-yl)methyl]-5,6,7,7a-tetrahydro-3aH-pyrano[3,2-d][1,3]thiazole-6,7-diol], the pEC50 – broadly, −log10 of the EC50, conventionally taken in molar units – on O-GlcNAcase (setting [2]) is < 6.00. Moreover, the negative logarithm of the IC50 (pIC50) (commonly the IC50 on a negative log10 scale, so that one unit is a factor of ten) in experiment [1] (setting [3]) is 6.30 to 7.00.

In the case of `C/C=C/C(=O)NC1=N[C@@H]2[C@@H](O)[C@H](O)[C@@H](CO)O[C@@H]2S1` [compound no. 19, (2E)-N-[(3aR,5R,6S,7R,7aR)-6,7-dihydroxy-5-(hydroxymethyl)-5,6,7,7a-tetrahydro-3aH-pyrano[3,2-d][1,3]thiazol-2-yl]but-2-enamide], the pEC50 at O-GlcNAcase (setting [2]) is < 6.00. Further, in experiment [1] (setting [3]), the pIC50 was 6.00 to 6.30. The like results for `CCNC1=N[C@@H]2[C@@H](O)[C@H](O)[C@@H](Cn3cc(-c4ccccn4)nn3)O[C@@H]2S1` [compound no. 7, (3aR,5R,6S,7R,7aR)-2-(ethylamino)-5-[(4-pyridin-2-yl-1H-1,2,3-triazol-1-yl)methyl]-5,6,7,7a-tetrahydro-3aH-pyrano[3,2-d][1,3]thiazole-6,7-diol] were, in that order, < 6.00 and 6.30 to 7.00.

For `CCNC1=N[C@@H]2[C@@H](OS(C)(=O)=O)[C@H](O)[C@@H](CO)O[C@@H]2S1` [compound no. 46, (3aR,5R,6R,7R,7aR)-2-(ethylamino)-6-hydroxy-5-(hydroxymethyl)-5,6,7,7a-tetrahydro-3aH-pyrano[3,2-d][1,3]thiazol-7-yl methanesulfonate], at O-GlcNAcase (setting [2]), the pEC50 is 6.30 to 7.00. Besides, the pIC50 in experiment [1] (setting [3]) is 6.30 to 7.00.

As to `CCNC1=N[C@@H]2[C@@H](O)[C@H](O)[C@@H](CN=[N+]=[N-])O[C@@H]2S1` [compound no. 1, (3aR,5R,6S,7R,7aR)-5-(azidomethyl)-2-(ethylamino)-5,6,7,7a-tetrahydro-3aH-pyrano[3,2-d][1,3]thiazole-6,7-diol], the pEC50 at O-GlcNAcase (read-out: OGA cellular inhibition (EC50); cells expressing endogenous O-GlcNAcase (such as rat B35, rat PC-12, human SH-SY5Y), approximately 16 hours treatment) was 6.30 to 7.00.

Compound `CCNC1=N[C@@H]2[C@@H](O)[C@H](O)[C@@H](CN)O[C@@H]2S1` [compound no. 61, (3aR,5R,6S,7R,7aR)-5-(aminomethyl)-2-(ethylamino)-5,6,7,7a-tetrahydro-3aH-pyrano[3,2-d][1,3]thiazole-6,7-diol] showed a pIC50 in experiment [1] of 6.30 to 7.00. The same measure, in the same setting: the same measure for `CCN(C(=O)OC)C1=N[C@@H]2[C@@H](O)[C@H](O)[C@@H](CO)O[C@@H]2S1` [compound no. 49, Methyl-[(3aR,5R,6S,7R,7aR)-6,7-dihydroxy-5-(hydroxymethyl)-5,6,7,7a-tetrahydro-3aH-pyrano[3,2-d][1,3]thiazol-2-yl]ethylcarbamate]: > 7.00. Same read-out and setting: the figure for `CCNC1=N[C@@H]2[C@@H](O)[C@H](O)[C@@H](C(=O)N(C)C)O[C@@H]2S1` [compound no. 28, (3aR,5S,6S,7R,7aR)-2-(ethylamino)-6,7-dihydroxy-N,N-dimethyl-5,6,7,7a-tetrahydro-3aH-pyrano[3,2-d][1,3]thiazole-5-carboxamide] is < 6.00; for `CCNC1=N[C@@H]2[C@@H](O)[C@H](O)[C@@H](Cn3cc(COc4ccccc4CNC)nn3)O[C@@H]2S1` [compound 83] it is 6.00 to 6.30; for `CCNC1=N[C@@H]2[C@@H](O)[C@H](O)[C@@H](Cn3cc(Cn4ccnc4-c4cccs4)nn3)O[C@@H]2S1` [compound 97] it is > 7.00.

In the case of `CCNC1=N[C@@H]2[C@@H](O)[C@H](O)[C@@H](C=O)O[C@@H]2S1` [compound no. 47, (3aR,5S,6S,7R,7aR)-2-(ethylamino)-6,7-dihydroxy-5,6,7,7a-tetrahydro-3aH-pyrano[3,2-d][1,3]thiazole-5-carbaldehyde], the pIC50 in experiment [1] is > 7.00.

Regarding `CCNC1=N[C@@H]2[C@@H](O)[C@H](O)[C@@H](C(=O)OC)O[C@@H]2S1` [compound no. 42, Methyl-(3aR,5S,6S,7R,7aR)-2-(ethylamino)-6,7-dihydroxy-5,6,7,7a-tetrahydro-3aH-pyrano[3,2-d][1,3]thiazole-5-carboxylate], the negative-log IC50 (pIC50) in experiment [1] (setting [3]) is < 6.00. Same read-out and setting: the same measure for `CCNC1=N[C@@H]2[C@@H](O)[C@H](O)[C@@H](C(=O)CCc3ccccc3)O[C@@H]2S1` [compound no. 59, 1-[(3aR,5S,6S,7R,7aR)-2-(ethylamino)-6,7-dihydroxy-5,6,7,7a-tetrahydro-3aH-pyrano[3,2-d][1,3]thiazol-5-yl]-3-phenylpropan-1-one]: < 6.00; for `CCNC1=N[C@@H]2[C@@H](O)[C@H](O)[C@@H](Cn3cc(COc4cccc(N)c4)nn3)O[C@@H]2S1` [compound 101]: 6.30 to 7.00. For `CCNC1=N[C@@H]2[C@@H](OC)[C@H](OC)[C@@H](COC)O[C@@H]2S1` [compound no. 13, (3aR,5R,6S,7R,7aR)—N-ethyl-6,7-dimethoxy-5-(methoxymethyl)-5,6,7,7a-tetrahydro-3aH-pyrano[3,2-d][1,3]thiazol-2-amine], in experiment [1], the pIC50 is < 6.00. For `CCNC1=N[C@@H]2[C@@H](O)[C@H](O)[C@@H]([C@H](O)CCc3ccccc3)O[C@@H]2S1` [compound no. 54, (3aR,5R,6S,7R,7aR)-2-Ethylamino-5-((R)-1-hydroxy-3-phenyl-propyl)-5,6,7,7a-tetrahydro-3aH-pyrano[3,2-d]thiazole-6,7-diol], the pIC50 in experiment [1] (setting [3]) is < 6.00.

These data come from patent US8884023B2, “Pyrano [3,2-D][1,3]thiazole as glycosidase inhibitors” (priority 2011, dated 2014).
